Measured values reported in US10202391B2, “Chemical compounds” (AstraZeneca AB, priority 2015, dated 2019).

Experiments:
Type in all cases: cell-based, human
[1] = test system: A549 cell line; assay: Combination cell growth inhibition (Sytox Green, Loewe synergy), A549; settings: Example 18 with selumetinib, 6x6 dosing matrix 0-10 μmol/L, 3 days, Loewe model, average of three or more experiments
From the text: (§1) A549 is a human non small cell lung cancer line carrying an oncogenic mutation in the KRAS gene (G12S). H2122 is a human non small cell lung cancer line carrying an oncogenic mutation in the KRAS gene (G12C). H2009 is a human non small cell lung cancer line carrying an oncogenic mutation in the KRAS gene (G12A). Calu6 is a human non small cell lung cancer line carrying mutation in the KRAS ([…]) gene. All cell lines were obtained from the American Type Culture Collection.
(§2) All cell line were maintained at 37° C. and 5% CO2 in a humidified atmosphere and grown in RPMI-1640 growth media supplemented with 10% FBS and 2 mmol/L glutamine. […]
(§3) Cells were seeded in 384-well black, clear bottomed plates (Greiner Bio-One, Stonehouse, UK), cultured for 18-24 hours and treated with increasing concentrations of Example 18 and selumetinib (0-10 μmol/L) in a 6×6 dosing matrix. […] After 3 days of treatment, live cell number was determined using a Sytox Green endpoint as described previously (“Davies B R, Greenwood H, Dudley P, et al: Preclinical pharmacology of AZD5363, an inhibitor of AKT: Pharmacodynamics, antitumor activity, and correlation of monotherapy activity with genetic background. Mol Cancer Ther 11(4):873-87, 2012”). […] Cells were then permeabilised by the overnight addition of saponin (0.03% final concentration, diluted in TBS-EDTA buffer) and a total cell count measured. […]

[2] = test system: H2122 cell line; assay: Combination cell growth inhibition (Sytox Green, Loewe synergy), H2122; settings: Example 18 with selumetinib, 6x6 dosing matrix 0-10 μmol/L, 3 days, Loewe model, average of three or more experiments
From the text: as §1, §2, §3

[3] = test system: H2009 cell line; assay: Combination cell growth inhibition (Sytox Green, Loewe synergy), H2009; settings: Example 18 with selumetinib, 6x6 dosing matrix 0-10 μmol/L, 3 days, Loewe model, average of three or more experiments
From the text: as §1, §2, §3

[4] = test system: panel of cancer cell lines with KRAS mutations; assay: Cell growth inhibition, monotherapy, panel of KRAS mutant lines; settings: A549, H2122, H2009, Calu6; 3 days of treatment
From the text: as §1, §2, §3

Compound `COC[C@H]1Cn2cc(-c3nc(Nc4ccnn4C)ncc3C)nc2C(=O)N1Cc1ccc(F)c(F)c1` [Example 18, (R)-7-(3,4-Difluorobenzyl)-6-(methoxymethyl)-2-(5-methyl-2-((1-methyl-1H-pyrazol-5-yl)amino)pyrimidin-4-yl)-6,7-dihydroimidazo[1,2-a]pyrazin-8(5H)-one] has a Synergy score [1] of 25, a Synergy score [2] of 14.3 and a Synergy score [3] of 67.5. For the same compound, the “cell growth inhibition as monotherapy” value [4] was “can inhibit the growth of a panel of cancer cell lines with KRAS mutations as a monotherapy”.
